Columns and labels:
[1] = tested on: Human epidermal melanoma cells A375; assay: Visible light induced hyperpigmentation in vitro (melanin quantification); assay type: cell-based; conditions: for Inhibition vs. visible light induced / Melanin: visible light 480 J/cm2; for Melanin: treated 48 h prior to and past irradiation; for inhibition of visible light induced hyperpigmentation (in words): summary of Table 1
Protocol: Human epidermal melanoma cells A375 were cultured in 6-well plates. The cells were exposed to visible light (480 J/cm2) with Hydrosun 750 equipped with KG1 filter. 48 h prior to and past to the irradiation the cells were treated with test compounds in non-cytotoxic concentrations. Melanocytes were lysed in a solution of NaOH. Melanin was quantified by measurement of absorbance at 405 nm and calculation based on a melanin standard curve.

[2] = tested on: ex vivo human skin explants; assay: Melanin formation after visible light irradiation on ex vivo human skin; conditions: visible light 480 J/cm2; for % of melanin: Fontana-Masson stain, image analysis
Protocol: The below formulations were applied on ex vivo human skin explants from abdominal surgery of a donor with phototype IV (Fitzpatrick scale). 48 h after the formulations were removed with a cotton pad. Skin explants were exposed to visible light (480 J/cm2) with Hydrosun 750 equipped with KG1 filter. Formulations were reapplied afterwards. 48 h later skin sections were prepared and melanin was stained by Fontana-Masson stain. Quantification of melanin was done by image analysis.

In the case of `CC(c1ccccc1)c1ccc(O)cc1O` (stereo not shown) [SymWhite ® 377, phenylethyl resorcinol], the “Inhibition vs. visible light induced” value ([1]; concentration 0.000068 %) was 79%, the Melanin ([1]; concentration 0.000068 %) was 0.5688 ± 0.0793 µg and the “Inhibition vs. visible light induced” value ([1]; concentration 0.000210 %) was 86%. For the same compound, the Melanin ([1]; concentration 0.000210 %) was 0.5280 ± 0.0494 µg, the “Inhibition vs. visible light induced” value ([1]; concentration 0.000680 %) was 100% and the Melanin ([1]; concentration 0.000680 %) was 0.4598 ± 0.1024 µg. For the same compound, the “inhibition of visible light induced hyperpigmentation (in words)” value (from here on “inhibition … (in words)”) [1] was “significantly inhibit”, the “% of melanin” value ([2]; 0.2% in formulation applied to skin explants (phototype IV)) was 42.48 ± 2.6% and the “Inhibition vs Placebo” value ([2]; 0.2% in formulation applied to skin explants) was 67.5%. The “% of melanin” value ([2]; 0.5% in formulation applied to skin explants (phototype IV)) was 25.91 ± 1.2% and the “Inhibition vs Placebo” value ([2]; 0.5% in formulation applied to skin explants) was 125.7%.

`CCCCCCc1ccc(O)cc1O` [4-Hexylresorcinol, 4-hexyl resorcinol] was tested, and the “Inhibition vs. visible light induced” value ([1]; concentration 0.000005 %) was 91%, the Melanin ([1]; concentration 0.000005 %) was 1.9616 ± 0.2899 µg and the “Inhibition vs. visible light induced” value ([1]; concentration 0.000015 %) was 102%. For the same compound, the Melanin ([1]; concentration 0.000015 %) was 1.8407 ± 0.1988 µg, the “Inhibition vs. visible light induced” value ([1]; concentration 0.000050 %) was 166% and the Melanin ([1]; concentration 0.000050 %) was 1.1668 ± 0.1312 µg. For the same compound, the “inhibition … (in words)” value [1] was “significantly inhibit”.

`CCCCc1ccc(O)cc1O` [4-Butylresorcinol, 4-butyl resorcinol] was tested, and the “Inhibition vs. visible light induced” value ([1]; concentration 0.0000316 %) was 58%, the Melanin ([1]; concentration 0.0000316 %) was 2.3136 ± 0.6518 µg and the “Inhibition vs. visible light induced” value ([1]; concentration 0.0001000 %) was 100%. For the same compound, the Melanin ([1]; concentration 0.0001000 %) was 1.8593 ± 0.5365 µg, the “Inhibition vs. visible light induced” value ([1]; concentration 0.0003160 %) was 183% and the Melanin ([1]; concentration 0.0003160 %) was 0.9849 ± 0.0738 µg. For the same compound, the “inhibition … (in words)” value [1] was “significantly inhibit”.
